This assay deals with human BLT1 receptor (Homo sapiens (Human), UniProt Q15722). Description: BLT-1 cAMP Assay. Format: cell-based. Conditions: antagonist mode; HEK293 cells recombinantly expressing human BLT1 receptor; forskolin 4 μM and LTB4 2 nM. As for the experimental part: The ability of compounds to antagonize the human BLT1 receptor was determined using a kit to measure changes in intracellular cyclic AMP levels (cAMP dynamic assay kit, Cisbio Cat. No. 62AM4PEC). HEK293 cells recombinantly expressing human BLT1 receptor, previously frozen in Recovery Medium (Life Technologies, Cat. No. 12648-010) were thawed and diluted into assay medium (HBSS (Hyclone SH 30268.01), 20 mM HEPES (Gibco 15630-106), 800 μM IBMX (Sigma 15879), 0.1% DTPA BSA (Perkin Elmer CR84-100)). The cell suspension was centrifuged at 200×g for 10 min and then resuspended in fresh assay medium to a density of 2.5×10^5 cells/mL. A Labcyte Echo 550 acoustic dispenser was used to transfer 25 nL of test compound dissolved in DMSO into the wells of a dry 384-well plate (Greiner 784075). All subsequent liquid additions were performed using a BIORAPTR (FRD; Beckman Coulter). Next, 5 μL of cell suspension was added and incubated for 20 min. at 37° C. and 5% CO2 in a humidified plastic tray. To test for agonist activity 5 μL of assay buffer containing forskolin (Sigma F-6886. 4 μM for BLT1) was added and incubated for 30 minutes at 37° C. and 5% CO2 in a humidified plastic tray. To test for antagonist activity 5 μL of assay buffer containing forskolin (Sigma F-6886. 4 μM for BLT1) and either LTB4 (Sigma Aldrich L0517; 2 nM BLT1) was added and incubated for 30 minutes at 37° C. and 5% CO2 in a humidified plastic tray.
Chain of human BLT1 receptor (Q15722 whole entry): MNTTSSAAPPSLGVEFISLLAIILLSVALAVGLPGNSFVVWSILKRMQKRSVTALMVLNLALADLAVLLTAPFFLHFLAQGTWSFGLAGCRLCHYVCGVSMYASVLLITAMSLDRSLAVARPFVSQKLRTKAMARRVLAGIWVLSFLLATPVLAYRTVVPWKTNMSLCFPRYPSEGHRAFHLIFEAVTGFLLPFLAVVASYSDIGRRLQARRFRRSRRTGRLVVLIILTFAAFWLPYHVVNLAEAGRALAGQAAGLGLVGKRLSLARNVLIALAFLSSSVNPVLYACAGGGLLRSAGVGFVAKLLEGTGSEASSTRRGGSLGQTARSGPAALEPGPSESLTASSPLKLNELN
The levels of cAMP were detected using the CisBio kit following the manufacturer's instructions: cAMP-d2 vial was reconstituted with distilled water and then diluted accordingly with conjugate & lysis buffer. 5 μL of cAMP-d2 working solution was added to all of the wells of the assay plate. cAMP-Cryptate vial was reconstituted with distilled water and then diluted accordingly with conjugate & lysis buffer. 5 μL of cAMP-Cryptate working solution were added to the assay plate. The assay plate was shaken for 3 minutes and incubated at room temperature for 45 minutes, then read on Perkin Elmer Envision. cAMP standard curve and fit data were plotted using a 4 parameter dose response curve fitting algorithm to fit curve. A 4-parameter curve fit (Max, min, log EC50 and slope) was used to transform fluorescent 665 nm/615 nm ratio signal to cAMP concentration. After normalization to treated and untreated controls, the percent effect of signal at each compound concentration was calculated. The plot of percent effect versus the log of compound concentration was fit with a 4-parameter concentration response equation to calculate EC50 values. Compound concentrations tested were 10 000, 3 333, 1 111, 370.4, 123.4, 41.2, 13.7, 4.6, 1.5 and 0.5 nM with 0.25% residual DMSO.
Take `Cc1ncc(-c2ccc(C[C@H]3COc4cc(-c5ccccc5C(=O)NS(=O)(=O)C5CC5)ccc4[C@@H]3O)nc2)s1` (single isomer, unassigned) [Example 10, N-(Cyclopropylsulfonyl)-2-((3S,4R or 3R,4S)-4-hydroxy-3-((5-(2-methylthiazol-5-yl)pyridin-2-yl)methyl)chroman-7-yl)benzamide]: the EC50 came to 6 nM.

Turning to `Cc1ncc(-c2ccc(C[C@@H]3COc4cc(-c5ccccc5C(=O)NS(=O)(=O)C5CC5)ccc4[C@H]3O)nc2)s1` (racemic) [Example 9, N-(Cyclopropylsulfonyl)-2-((rac-trans)-4-hydroxy-3-((5-(2-methylthiazol-5-yl)pyridin-2-yl)methyl)chroman-7-yl)benzamide], the EC50 was determined as 9 nM. Consider `CC1(S(=O)(=O)NC(=O)c2ccccc2-c2ccc3c(c2)OC[C@@H](Cc2ccc(-c4cncs4)cn2)[C@@H]3O)CC1` [Example 1, 2-((Rac-trans)-4-Hydroxy-3-((5-(thiazol-5-yl)pyridin-2-yl)methyl)chroman-7-yl)-N-((1-methylcyclopropyl)sulfonyl)benzamide], for which the EC50 worked out at 6 nM. Turning to `CC1(S(=O)(=O)NC(=O)c2ccccc2-c2ccc3c(c2)OC[C@H](Cc2ccc(-c4cncs4)cn2)[C@H]3O)CC1` (single isomer, unassigned) [Example 2, 2-((3S, 4R or 3R, 4S)-4-Hydroxy-3-((5-(thiazol-5-yl)pyridin-2-yl)methyl)chroman-7-yl)-N-((1-methylcyclopropyl)sulfonyl)benzamide], the EC50 was 6 nM.

On to `CC1(S(=O)(=O)NC(=O)c2ccccc2-c2ccc3c(c2)OC[C@@H](Cc2ccc(-c4cncs4)cn2)[C@@H]3O)CC1` (single isomer, unassigned) [Example 3, 2-((3R, 4S or 3S, 4R)-4-Hydroxy-3-((5-(thiazol-5-yl)pyridin-2-yl)methyl)chroman-7-yl)-N-((1-methylcyclopropyl)sulfonyl)benzamide], for which the EC50 turned out to be 78 nM. In the case of `Cc1ncc(-c2ccc(C[C@@H]3COc4cc(-c5ccccc5C(=O)NS(=O)(=O)C5CC5)ccc4[C@H]3O)nc2)s1` (single isomer, unassigned) [Example 11, N-(Cyclopropylsulfonyl)-2-((3R,4S or 3S,4R)-4-hydroxy-3-((5-(2-methylthiazol-5-yl)pyridin-2-yl)methyl)chroman-7-yl)benzamide] it was 391 nM; in that of `CC(C)(C)S(=O)(=O)NC(=O)c1ccccc1-c1ccc2c(c1)OC[C@H](Cc1ccc(-c3cncs3)cn1)[C@H]2O` (single isomer, unassigned) [Example 5, N-(tert-Butylsulfonyl)-2-((3S, 4R or 3R, 4S)-4-hydroxy-3-((5-(thiazol-5-yl)pyridin-2-yl)methyl)chroman-7-yl)benzamide], 5 nM; in that of `CC(C)(C)S(=O)(=O)NC(=O)c1ccccc1-c1ccc2c(c1)OC[C@@H](Cc1ccc(-c3cncs3)cn1)[C@@H]2O` (single isomer, unassigned) [Example 6, N-(tert-Butylsulfonyl)-2-((3R, 4S or 3S, 4R)-4-hydroxy-3-((5-(thiazol-5-yl)pyridin-2-yl)methyl)chroman-7-yl)benzamide], 128 nM.

On to `CC(C)(C)S(=O)(=O)NC(=O)c1ccccc1-c1ccc2c(c1)OC[C@@H](Cc1ccc(-c3cncs3)cn1)[C@@H]2O` (racemic) [Example 4, N-(tert-Butylsulfonyl)-2-((rac-trans)-4-hydroxy-3-((5-(thiazol-5-yl)pyridin-2-yl)methyl)chroman-7-yl)benzamide], for which the EC50 was 8 nM. As for `O=C(NS(=O)(=O)C1CC1)c1ccccc1-c1ccc2c(c1)OC[C@@H](Cc1ccc(-c3cncs3)cn1)[C@@H]2O` (racemic) [Example 8, N-(Cyclopropylsulfonyl)-2-((rac-trans)-4-hydroxy-3-((5-(thiazol-5-yl)pyridin-2-yl)methyl)chroman-7-yl)benzamide], the EC50 worked out at 12 nM. For `Cc1ncc(-c2ccc(C[C@@H]3COc4cc(-c5ccccc5C(=O)NS(=O)(=O)C(C)(C)C)ccc4[C@H]3O)nc2)s1` (racemic) [Example 7, N-(tert-Butylsulfonyl)-2-((rac-trans)-4-hydroxy-3-((5-(2-methylthiazol-5-yl)pyridin-2-yl)methyl)chroman-7-yl)benzamide] the value was 5 nM.

Broadly, the EC50 is the concentration giving half of the maximal effect.

The values above are taken from patent US10370368B2, “Aryl acylsulfonamides as BLT1 antagonists” (Merck Sharp & Dohme Corp., priority 2015, dated 2019).
